Columns and labels:
[1] = biological target: T1, Interleukin-1 receptor-associated kinase 4 (Homo sapiens, UniProt Q9NWZ3); assay: Inhibition of IRAK4 (unknown origin)
T1 sequence (Q9NWZ3 whole entry): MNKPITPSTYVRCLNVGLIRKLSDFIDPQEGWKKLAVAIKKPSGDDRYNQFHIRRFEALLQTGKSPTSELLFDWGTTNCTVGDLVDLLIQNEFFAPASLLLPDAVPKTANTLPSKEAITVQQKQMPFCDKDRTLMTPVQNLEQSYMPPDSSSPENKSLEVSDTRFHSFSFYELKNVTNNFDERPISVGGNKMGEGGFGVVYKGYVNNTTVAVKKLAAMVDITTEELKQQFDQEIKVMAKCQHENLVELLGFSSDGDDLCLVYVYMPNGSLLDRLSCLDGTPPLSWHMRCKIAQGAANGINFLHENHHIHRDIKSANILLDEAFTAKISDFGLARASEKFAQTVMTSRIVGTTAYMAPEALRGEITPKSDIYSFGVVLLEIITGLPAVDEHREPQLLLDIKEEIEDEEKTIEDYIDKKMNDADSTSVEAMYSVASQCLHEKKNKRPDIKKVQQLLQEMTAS

[2] = Half life of compound in human PBMC; format: ADME, cell-based
[3] = biological target: PI3-kinase p110-alpha/p85-alpha (Homo sapiens, UniProt P42336); assay: Inhibition of human N-terminal His-tagged PI3Kalpha/p85alpha expressed in Spodoptera frugiperda using phosphatidylinositol as substrate
PI3-kinase p110-alpha/p85-alpha, sequence (P27986 whole entry): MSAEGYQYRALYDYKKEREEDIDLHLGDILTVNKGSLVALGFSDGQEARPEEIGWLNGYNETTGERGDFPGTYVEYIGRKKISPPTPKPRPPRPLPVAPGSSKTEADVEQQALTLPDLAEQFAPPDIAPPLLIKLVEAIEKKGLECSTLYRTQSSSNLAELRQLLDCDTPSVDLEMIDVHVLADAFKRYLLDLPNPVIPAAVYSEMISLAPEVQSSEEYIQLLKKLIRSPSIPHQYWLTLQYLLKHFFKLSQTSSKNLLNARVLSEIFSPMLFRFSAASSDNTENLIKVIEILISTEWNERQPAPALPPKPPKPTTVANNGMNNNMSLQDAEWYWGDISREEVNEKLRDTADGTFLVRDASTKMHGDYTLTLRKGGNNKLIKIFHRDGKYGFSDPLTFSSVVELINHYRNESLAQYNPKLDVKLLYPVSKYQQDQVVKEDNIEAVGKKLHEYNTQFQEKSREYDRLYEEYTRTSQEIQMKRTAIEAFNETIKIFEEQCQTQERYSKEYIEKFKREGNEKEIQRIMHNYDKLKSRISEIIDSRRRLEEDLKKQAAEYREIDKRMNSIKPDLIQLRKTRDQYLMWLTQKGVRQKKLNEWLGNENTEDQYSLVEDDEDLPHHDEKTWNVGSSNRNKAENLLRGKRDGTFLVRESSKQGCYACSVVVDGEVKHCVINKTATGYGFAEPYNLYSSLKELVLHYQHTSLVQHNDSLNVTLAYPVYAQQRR
PI3-kinase p110-alpha/p85-alpha, sequence (P42336 whole entry): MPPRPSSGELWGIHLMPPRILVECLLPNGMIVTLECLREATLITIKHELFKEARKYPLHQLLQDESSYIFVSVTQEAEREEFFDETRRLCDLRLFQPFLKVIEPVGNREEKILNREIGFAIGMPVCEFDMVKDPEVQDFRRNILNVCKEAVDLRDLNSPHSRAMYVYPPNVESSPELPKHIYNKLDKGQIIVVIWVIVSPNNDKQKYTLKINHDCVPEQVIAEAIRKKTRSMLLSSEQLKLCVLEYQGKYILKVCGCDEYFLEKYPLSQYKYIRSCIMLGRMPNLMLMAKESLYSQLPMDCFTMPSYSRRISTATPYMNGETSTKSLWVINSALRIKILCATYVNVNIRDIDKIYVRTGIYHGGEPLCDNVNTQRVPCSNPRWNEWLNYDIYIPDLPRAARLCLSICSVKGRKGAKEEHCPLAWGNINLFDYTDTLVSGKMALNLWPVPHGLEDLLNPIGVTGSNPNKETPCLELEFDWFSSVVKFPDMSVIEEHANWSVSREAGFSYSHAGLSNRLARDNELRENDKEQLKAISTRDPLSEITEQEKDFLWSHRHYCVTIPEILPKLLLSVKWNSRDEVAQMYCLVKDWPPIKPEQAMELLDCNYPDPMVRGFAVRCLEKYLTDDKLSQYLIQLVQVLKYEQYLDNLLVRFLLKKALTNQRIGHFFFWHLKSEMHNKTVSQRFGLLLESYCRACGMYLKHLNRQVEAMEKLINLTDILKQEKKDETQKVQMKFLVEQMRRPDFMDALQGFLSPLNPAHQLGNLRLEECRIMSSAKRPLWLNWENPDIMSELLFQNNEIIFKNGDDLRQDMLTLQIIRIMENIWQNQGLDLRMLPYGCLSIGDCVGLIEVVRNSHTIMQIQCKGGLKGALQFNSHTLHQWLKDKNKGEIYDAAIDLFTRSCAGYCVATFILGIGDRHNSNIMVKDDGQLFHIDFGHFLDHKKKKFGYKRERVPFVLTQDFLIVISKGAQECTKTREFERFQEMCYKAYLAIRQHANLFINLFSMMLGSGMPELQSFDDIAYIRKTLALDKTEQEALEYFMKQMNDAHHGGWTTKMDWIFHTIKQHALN

[4] = biological target: PI3K p110 beta/p85 alpha (Homo sapiens, UniProt P42338); assay: Inhibition of human full length recombinant N-terminal His-tagged PI3Kbeta/p85alpha expressed in baculovirus infected Sf21 insect cells
PI3K p110 beta/p85 alpha, sequence (P27986 whole entry, canonical isoform): as the sequence (P27986 whole entry) above
PI3K p110 beta/p85 alpha, sequence (P42338 whole entry, canonical isoform): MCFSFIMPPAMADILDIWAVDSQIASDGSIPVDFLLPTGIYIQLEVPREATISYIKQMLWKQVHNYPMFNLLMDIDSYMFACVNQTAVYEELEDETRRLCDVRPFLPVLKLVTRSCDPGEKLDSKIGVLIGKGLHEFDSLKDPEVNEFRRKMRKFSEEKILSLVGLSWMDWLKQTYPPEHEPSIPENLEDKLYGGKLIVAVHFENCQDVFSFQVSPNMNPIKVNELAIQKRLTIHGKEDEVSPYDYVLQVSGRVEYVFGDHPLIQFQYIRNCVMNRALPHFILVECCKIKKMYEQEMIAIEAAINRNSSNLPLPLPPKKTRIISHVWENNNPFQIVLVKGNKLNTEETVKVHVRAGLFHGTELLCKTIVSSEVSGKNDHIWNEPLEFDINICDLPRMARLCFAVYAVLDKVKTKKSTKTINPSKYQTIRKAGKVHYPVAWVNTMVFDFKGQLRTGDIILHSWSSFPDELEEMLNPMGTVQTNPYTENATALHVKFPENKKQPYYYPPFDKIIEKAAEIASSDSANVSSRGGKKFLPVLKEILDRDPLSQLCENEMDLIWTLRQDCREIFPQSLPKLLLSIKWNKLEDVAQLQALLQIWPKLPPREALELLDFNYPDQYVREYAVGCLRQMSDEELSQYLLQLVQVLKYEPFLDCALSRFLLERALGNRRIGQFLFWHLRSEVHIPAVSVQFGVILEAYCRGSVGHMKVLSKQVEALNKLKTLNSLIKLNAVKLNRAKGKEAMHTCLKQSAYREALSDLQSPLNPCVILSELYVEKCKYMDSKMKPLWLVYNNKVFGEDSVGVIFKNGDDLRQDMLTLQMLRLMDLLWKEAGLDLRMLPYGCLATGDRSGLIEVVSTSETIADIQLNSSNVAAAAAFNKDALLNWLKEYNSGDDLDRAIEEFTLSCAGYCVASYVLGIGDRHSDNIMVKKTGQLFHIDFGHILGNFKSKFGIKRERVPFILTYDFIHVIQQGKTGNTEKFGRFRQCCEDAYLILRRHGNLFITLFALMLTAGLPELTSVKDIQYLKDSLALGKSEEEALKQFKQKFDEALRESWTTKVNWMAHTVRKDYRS

[5] = biological target: Phosphatidylinositol 4,5-bisphosphate 3-kinase catalytic subunit gamma isoform (Homo sapiens, UniProt P48736); assay: Inhibition of PI3Kgamma (unknown origin)
Phosphatidylinositol 4,5-bisphosphate 3-kinase catalytic subunit gamma isoform, sequence (P48736 whole entry, canonical isoform): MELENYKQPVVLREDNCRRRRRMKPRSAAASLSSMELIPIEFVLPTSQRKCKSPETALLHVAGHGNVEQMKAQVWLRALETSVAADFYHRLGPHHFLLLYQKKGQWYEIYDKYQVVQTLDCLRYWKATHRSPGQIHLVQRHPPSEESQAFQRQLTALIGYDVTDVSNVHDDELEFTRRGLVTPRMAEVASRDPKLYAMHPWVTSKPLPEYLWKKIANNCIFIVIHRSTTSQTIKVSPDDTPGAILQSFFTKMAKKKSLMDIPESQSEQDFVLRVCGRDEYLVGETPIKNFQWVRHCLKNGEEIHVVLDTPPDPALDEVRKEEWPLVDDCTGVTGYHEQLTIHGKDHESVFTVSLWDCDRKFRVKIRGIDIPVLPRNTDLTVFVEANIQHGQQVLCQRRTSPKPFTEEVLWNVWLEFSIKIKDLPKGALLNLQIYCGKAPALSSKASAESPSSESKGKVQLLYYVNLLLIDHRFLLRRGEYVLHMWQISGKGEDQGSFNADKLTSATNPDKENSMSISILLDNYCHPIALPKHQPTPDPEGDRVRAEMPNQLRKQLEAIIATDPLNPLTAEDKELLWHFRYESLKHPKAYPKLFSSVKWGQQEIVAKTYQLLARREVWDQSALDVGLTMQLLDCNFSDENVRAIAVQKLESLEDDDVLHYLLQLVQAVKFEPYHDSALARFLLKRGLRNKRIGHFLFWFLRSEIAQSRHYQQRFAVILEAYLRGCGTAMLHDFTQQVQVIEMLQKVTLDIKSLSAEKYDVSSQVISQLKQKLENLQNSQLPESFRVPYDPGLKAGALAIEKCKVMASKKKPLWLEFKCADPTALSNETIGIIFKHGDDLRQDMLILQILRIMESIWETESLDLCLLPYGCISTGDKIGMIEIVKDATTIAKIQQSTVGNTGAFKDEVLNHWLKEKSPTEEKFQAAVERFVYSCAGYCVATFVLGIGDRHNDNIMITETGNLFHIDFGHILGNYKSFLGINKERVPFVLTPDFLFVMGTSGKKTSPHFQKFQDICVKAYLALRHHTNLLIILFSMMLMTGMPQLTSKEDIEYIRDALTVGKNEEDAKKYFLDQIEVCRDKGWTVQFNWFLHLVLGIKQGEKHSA

[6] = biological target: MAP kinase-interacting serine/threonine-protein kinase 1/2 (Homo sapiens) (UniProt Q9HBH9+Q9BUB5); assay: Inhibition of MNK in human PBMC assessed as reduction in eIF4E phosphorylation at 200 mg after 24 hrs relative to control
[7] = biological target: Non-receptor tyrosine-protein kinase TYK2 (Homo sapiens, UniProt P29597); assay: Inhibition of TYK2 in human Jurkat cells assessed as reduction in IFN-alpha stimulated TYK2 phosphorylation by […] Western blot analysis; format: cell-based
[8] = biological target: Tyrosine-protein kinase JAK1 (Homo sapiens, UniProt P23458); assay: Inhibition of JAK1 in human Jurkat cells assessed as reduction in IFN-alpha stimulated JAK1 phosphorylation by […] Western blot analysis; format: cell-based
[9] = biological target: T2, Tyrosine-protein kinase JAK3 (Homo sapiens, UniProt P52333); assay: Inhibition of JAK3 in human Jurkat cells assessed as reduction in IFN-alpha stimulated JAK3 phosphorylation by […] Western blot analysis; format: cell-based
T2 sequence (P52333 whole entry): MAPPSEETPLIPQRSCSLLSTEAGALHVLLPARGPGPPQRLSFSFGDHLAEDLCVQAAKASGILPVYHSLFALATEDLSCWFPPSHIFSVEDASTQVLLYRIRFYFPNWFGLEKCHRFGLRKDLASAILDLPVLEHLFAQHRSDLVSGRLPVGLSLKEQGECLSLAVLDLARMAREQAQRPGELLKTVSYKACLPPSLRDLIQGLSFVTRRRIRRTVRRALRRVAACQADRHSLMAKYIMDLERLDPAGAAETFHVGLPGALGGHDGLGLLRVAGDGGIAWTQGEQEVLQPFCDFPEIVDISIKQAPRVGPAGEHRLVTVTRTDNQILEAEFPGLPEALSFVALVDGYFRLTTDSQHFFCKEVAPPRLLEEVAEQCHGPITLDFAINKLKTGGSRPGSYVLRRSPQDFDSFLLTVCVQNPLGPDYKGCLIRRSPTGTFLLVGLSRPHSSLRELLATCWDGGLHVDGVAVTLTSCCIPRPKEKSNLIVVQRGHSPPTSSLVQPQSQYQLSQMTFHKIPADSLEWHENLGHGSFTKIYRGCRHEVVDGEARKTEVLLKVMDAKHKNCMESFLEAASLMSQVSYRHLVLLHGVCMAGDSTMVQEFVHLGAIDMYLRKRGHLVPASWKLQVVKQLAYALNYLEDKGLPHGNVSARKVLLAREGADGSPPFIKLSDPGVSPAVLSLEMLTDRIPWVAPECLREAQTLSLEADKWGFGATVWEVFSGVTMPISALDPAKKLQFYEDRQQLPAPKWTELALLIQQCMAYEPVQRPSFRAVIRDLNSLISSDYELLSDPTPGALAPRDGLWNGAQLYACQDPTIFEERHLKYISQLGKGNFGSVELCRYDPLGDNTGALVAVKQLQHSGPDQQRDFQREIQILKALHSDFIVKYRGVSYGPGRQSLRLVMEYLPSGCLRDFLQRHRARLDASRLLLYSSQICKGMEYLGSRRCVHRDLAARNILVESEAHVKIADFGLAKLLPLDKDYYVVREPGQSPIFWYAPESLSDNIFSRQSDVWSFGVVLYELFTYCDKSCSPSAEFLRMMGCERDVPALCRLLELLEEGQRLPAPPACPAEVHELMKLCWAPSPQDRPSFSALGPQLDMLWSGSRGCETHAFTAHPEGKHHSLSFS

[10] = organism: Homo sapiens; assay: Selectivity ratio of IC50 for PI3Kdelta (unknown origin) to IC50 for human N-terminal His-tagged PI3Kalpha/p85alpha
[11] = organism: Homo sapiens; assay: Selectivity ratio of IC50 for PI3Kdelta (unknown origin) to IC50 for human full length recombinant N-terminal His-tagged PI3Kbeta/p85alpha
[12] = organism: Homo sapiens; assay: Selectivity ratio of IC50 for PI3Kdelta (unknown origin) to IC50 for PI3Kgamma (unknown origin)

`CC[C@@H]1[C@H](F)C(=O)N[C@@H]1COc1cccc2cc(C(N)=O)c(OC)cc12` gave an IC50 [1] of 0.2 nM.
`N#Cc1ccc(-c2cnc3ccc(-c4ccc(C(=O)N5CCOCC5)cc4)cn23)cc1` [TINODASERTIB] showed a half-life [2] of 25 h.
Compound `NC(=O)C[C@H]1CCc2sc3ncnc(O[C@H]4CC[C@H](N5CCOCC5)CC4)c3c21` has an IC50 [1] of 7.5 nM.
`CC(C)Oc1ccc(-c2nn([C@@H](C)c3oc4ccc(F)cc4c(=O)c3-c3cccc(F)c3)c3ncnc(N)c23)cc1F` [UMBRALISIB] gave an IC50 [3] of over 10000 nM, an IC50 [4] of over 10000 nM and an IC50 [5] of 1400 nM.
In the case of `Cc1csc2nc([C@H](C)Nc3ncnc4[nH]cnc34)c(-c3cccc(F)c3)c(=O)n12` [DEZAPELISIB], the IC50 [4] is reported as 3750 nM and the IC50 [5] is reported as 2300 nM.
With `Cc1cc(Nc2cc(N)ncn2)c(=O)n2c1C(=O)NC21CCCCC1.Cl` [TOMIVOSERTIB HYDROCHLORIDE] the inhibition [6] was 85% and the half-life [2] was 11 h.
Compound `NC(=O)c1nc(-c2c(F)cccc2Cl)oc1Nc1ccc(C(=O)N2CCOCC2)cc1` has an IC50 [7] of 0.6 nM, an IC50 [8] of 23 nM and an IC50 [9] of 41 nM.
`Fc1ccc2[nH]ccc2c1-c1nc(N2CCOCC2)c2sc(CN3CCN(CC4CC4)CC3)cc2n1` gave an IC50 [3] of 2300 nM, an IC50 [4] of 1080 nM and an IC50 [5] of over 10000 nM. The Ratio IC50 [10] was over 72, the Ratio IC50 [11] was over 72 and the Ratio IC50 [12] was over 72.

— ChEMBL document CHEMBL4330088, “Targeting the immunity protein kinases for immuno-oncology” (Eur J Med Chem, 2019)
